# Assay results from article PMC11406233 (Proceedings of the National Academy of Sciences of the …, 2024).
# Read-outs that look alike come from different tables or passages of the source.
# Experiments:
# [1] = system: SCoV2^WK521WT; test: microbe, parasite or virus in culture; assay type: cell-based; conditions: for EC50: Severe acute respiratory syndrome coronavirus 2, read-out: EC50 from cell-based assay
# [2] = system: SCoV2^WK521WT; test: microbe, parasite or virus in culture; conditions: Severe acute respiratory syndrome coronavirus 2, VeroE6/TMPRSS2, read-out: EC50 from cell-based assay
Compound,EC50 [1] [µM],EC50 [2] [µM],Difference in the EC50 values of NIR and TKB245 [1] [fold]
COc1cccc2[nH]c(C(=O)N[C@@H](CC(C)C)C(=O)N[C@@H](C[C@@H]3CCNC3=O)C(=O)c3nc4ccccc4s3)cc12 [5h],0.2 ± 0.09,4.1,–
CC(C)(C)[C@H](NC(=O)C(F)(F)F)C(=O)N1C[C@H]2[C@@H]([C@H]1C(=O)N[C@@H](C[C@@H]1CCNC1=O)C(=O)c1nc3c(F)cccc3s1)C2(C)C [TKB245],0.0015,0.33,34.7
"CC(C)(C)[C@H](NC(=O)C(F)(F)F)C(=O)N1C[C@H]2[C@@H]([C@H]1C(=O)N[C@H](C#N)C[C@@H]1CCNC1=O)C2(C)C [nirmatrelvir, reference compound]",0.052,1.5,–
